Assay results: US20230320970A1, “Skin Care Compositions” (Colgate-Palmolive Company, priority 2022, published 2023)

Assays:
[1] = tested on: human derived keratinocytes; assay: ROS production in H2O2-treated keratinocytes (alpha-tocopherol, EGT, sodium PCA), ROS Detection Assay Kit; type: cell-based; details: alpha-tocopherol 0.001%, EGT 0.01%, Na PCA 0.01%; for % Decrease in ROS generated in keratinocyte: relative to 0.3 wt. % H2O2 treatment; for Fold Change, decrease in ROS generated in keratinocyte by antioxidant treatment: vs. 0.1 wt. % DMSO + 0.3 wt. % H2O2
Text: Sample preparation: Human derived keratinocytes, plated on 24-well plates.
Cellular ROS/Superoxide Detection Assay Kit (Abcam—ab139476)

[2] = tested on: human derived keratinocytes; assay: ROS production in H2O2-treated keratinocytes (alpha-tocopherol, EGT, niacinamide), ROS Detection Assay Kit; type: cell-based; details: alpha-tocopherol (0.001%) [sic], EGT 0.01%, niacinamide 0.01%; for % Decrease in ROS generated in keratinocyte: relative to 0.3 wt. % H2O2 treatment; for Fold Change, decrease in ROS generated in keratinocyte by antioxidant treatment: vs. 0.1% DMSO + 0.3% H2O2
Procedure: Hydrogen peroxide treated cells were then treated with: alpha-tocopherol, ergothioneine and niacinamide, respectively and in combination. […] [table] […] [table]

[3] = cited from earlier work

Structure (SMILES)	% Decrease in ROS generated in keratinocyte [1]	% Decrease in ROS generated in keratinocyte ([1]; listed as α-tocopherol)	Fold Change, decrease in ROS generated in keratinocyte by antioxidant treatment [1]	% Decrease in ROS generated in keratinocyte [2]	Fold Change, decrease in ROS generated in keratinocyte by antioxidant treatment [2]	% Decrease in ROS generated in keratinocyte ([1]; listed as Sodium PCA)	Log P [3]
Cc1c(C)c2c(c(C)c1O)CC[C@@](C)(CCC[C@H](C)CCC[C@H](C)CCCC(C)C)O2 [Alpha-tocopherol, alpha-tocopherol]	70.72%	70.72%	4.21-fold decrease	20.79%	0.4-fold decrease	–	–
C[N+](C)(C)[C@@H](Cc1c[nH]c(=S)[nH]1)C(=O)[O-] [EGT, Ergothioneine]	74.5%	–	4.43-fold decrease	15.91%	0.31-fold decrease	–	–
O=C1CCC(C(=O)[O-])N1.[Na+] (stereo not drawn) [Na PCA, Sodium PCA]	37.88%	–	2.25-fold decrease	25.75%	–	37.9%	–
NC(=O)c1cccnc1 [Niacinamide]	–	–	–	–	0.24-fold decrease	–	–
O=C1O[C@H]([C@@H](O)CO)C(O)=C1O[C@H]1O[C@H](CO)[C@@H](O)[C@H](O)[C@H]1O [ascorbyl glucoside]	–	–	–	–	–	–	−2.5
